According to article PMC10712727, “Safety, Tolerability, and Pharmacokinetics of Senaparib, a Novel PARP1/2 Inhibitor, in Chinese Patients With Advanced Solid Tumors: A Phase I Trial” (The Oncologist, 2023):

System: patients with advanced solid tumors
Experiment: Safety: treatment-emergent and senaparib-related adverse events graded per NCI CTCAE v4.03
Assay type: in vivo
Conditions: TEAE
Experimental: This phase I, open-label, multicenter, dose-escalation, and dose-expansion study was conducted at three national clinical institutions in China. […] At baseline, all patients enrolled in the dose-escalation phase had to have at least one evaluable lesion, and those in the dose-expansion period had to have at least one measurable lesion, according to Response Evaluation Criteria in Solid Tumors version 1.1 (RECIST v1.1).[16] Entry to the dose-expansion cohort required the presence of a BRCA mutation, with the exception of patients with ovarian carcinoma, fallopian tube carcinoma, and primary peritoneal carcinoma. Full study eligibility criteria are provided in Supplementary Table S1.
Dose escalation was conducted using a modified Fibonacci 3 + 3 method (Supplementary Fig. S1).[17] Patients were administered oral senaparib from a planned starting dose of 2 mg once daily (QD), with preliminary dose escalation to 120 mg via nine dose groups, in order of their entry into the study. At a given dose level, each patient received a single dose of senaparib followed by a 7-day washout period. They then entered a continuous dosing period to confirm the safety and PK profile, in which they received senaparib QD from day 1 to day 21 of each 3-week cycle. Progression to the next higher dose required approval from the Data Safety Monitoring Committee (DSMC) upon review of the safety and PK data of the previous dose. A 50-mg twice-daily (BID) dosing group was added (planned enrollment, n = 6 patients) based on a DSMC review of the safety, PK, and efficacy analysis of the completed QD dose groups in the phase I clinical trial of senaparib dose escalation in Australia (NCT03507543), which commenced prior to the start of this trial.
The dose-expansion period included 3 populations: dose groups in which at least one patient achieved complete response (CR) or partial response (PR) per RECIST v1.1[16] and 1 dose group higher (evaluated for safety), as well as the dose group at the maximum tolerated dose (MTD)/recommended phase II dose (RP2D). Each of these groups included those patients in the respective dose-escalation group plus a planned additional 10 patients (approximately 20 patients in the MTD/RP2D group) with BRCA^mut+ solid tumors (ovarian, breast, or prostate cancer were preferred, and ovarian cancer could be BRCA wild type). Patients received senaparib monotherapy orally QD or BID (50-mg dose only) over each 3-week cycle until disease progression or unacceptable toxicity.
DLTs were predefined toxicities (Supplementary Table S2) recorded over the 7 days following the single-dose administration of senaparib and during the first treatment cycle (day 1-day 21) for each dose group in the dose-escalation period only. The MTD was defined as the maximum dose at which ≤1/6 patients experienced a DLT. Senaparib PK parameters were derived from blood samples collected from patients after the single administration, and at regular intervals during the first cycle of the dose-escalation and dose-expansion periods. Plasma concentrations of senaparib were determined using high-performance liquid chromatography-tandem mass spectrometry. Tumor response was assessed every 6 weeks per RECIST v1.1,[16] recording objective response rate (ORR), disease control rate (DCR), duration of response (DOR), and progression-free survival (PFS) by dose level for all patients and for those harboring BRCA^mut+ tumors.

O=C(c1cc(Cn2c(=O)[nH]c(=O)c3c(F)cccc32)ccc1F)N1CCN(c2ncccn2)CC1 [Senaparib]
Asthenia, Gr≥3 (60 mg QD n = 5): 0 n (%) | Blood bilirubin increased, All (60 mg QD n = 5): 0 n (%) | Blood bilirubin increased, Gr≥3 (60 mg QD n = 5): 0 n (%) | Blood creatinine increased, All (60 mg QD n = 5): 1 (20.0) n (%) | Blood creatinine increased, Gr≥3 (60 mg QD n = 5): 0 n (%) | Hypokalemia, All (60 mg QD n = 5): 1 (20.0) n (%) | Hypokalemia, Gr≥3 (60 mg QD n = 5): 0 n (%) | Hyponatremia, All (60 mg QD n = 5): 1 (20.0) n (%) | Hyponatremia, Gr≥3 (60 mg QD n = 5): 0 n (%) | Nausea, All (60 mg QD n = 5): 1 (20.0) n (%) | Nausea, Gr≥3 (60 mg QD n = 5): 0 n (%) | Neutrophil count decreased, All (60 mg QD n = 5): 1 (20.0) n (%) | Neutrophil count decreased, Gr≥3 (60 mg QD n = 5): 0 n (%) | Pain in extremity, All (60 mg QD n = 5): 0 n (%) | Pain in extremity, Gr≥3 (60 mg QD n = 5): 0 n (%) | Platelet count decreased, All (60 mg QD n = 5): 2 (40.0) n (%) | Platelet count decreased, Gr≥3 (60 mg QD n = 5): 0 n (%) | Protein in urine, All (60 mg QD n = 5): 1 (20.0) n (%) | Protein in urine, Gr≥3 (60 mg QD n = 5): 0 n (%) | Vomiting, All (60 mg QD n = 5): 1 (20.0) n (%) | Vomiting, Gr≥3 (60 mg QD n = 5): 1 (20.0) n (%) | WBC decreased, All (60 mg QD n = 5): 2 (40.0) n (%) | WBC decreased, Gr≥3 (60 mg QD n = 5): 0 n (%) | ALT increased, All (80 mg QD n = 9): 1 (11.1) n (%) | ALT increased, Gr≥3 (80 mg QD n = 9): 0 n (%) | AST increased, All (80 mg QD n = 9): 2 (22.2) n (%) | AST increased, Gr≥3 (80 mg QD n = 9): 0 n (%) | Abdominal distension, All (80 mg QD n = 9): 3 (33.3) n (%) | Abdominal distension, Gr≥3 (80 mg QD n = 9): 0 n (%) | Anemia (incl. hemoglobin decreased), All (80 mg QD n = 9): 7 (77.8) n (%) | Anemia (incl. hemoglobin decreased), Gr≥3 (80 mg QD n = 9): 3 (33.3) n (%) | Appetite decreased, All (80 mg QD n = 9): 3 (33.3) n (%) | Appetite decreased, Gr≥3 (80 mg QD n = 9): 0 n (%) | Asthenia, All (80 mg QD n = 9): 2 (22.2) n (%) | Asthenia, Gr≥3 (80 mg QD n = 9): 0 n (%) | Blood bilirubin increased, All (80 mg QD n = 9): 2 (22.2) n (%) | Blood bilirubin increased, Gr≥3 (80 mg QD n = 9): 0 n (%) | Blood creatinine increased, All (80 mg QD n = 9): 2 (22.2) n (%) | Blood creatinine increased, Gr≥3 (80 mg QD n = 9): 0 n (%) | Hypokalemia, All (80 mg QD n = 9): 3 (33.3) n (%) | Hypokalemia, Gr≥3 (80 mg QD n = 9): 0 n (%) | Hyponatremia, All (80 mg QD n = 9): 1 (11.1) n (%) | Hyponatremia, Gr≥3 (80 mg QD n = 9): 0 n (%) | Nausea, All (80 mg QD n = 9): 4 (44.4) n (%) | Nausea, Gr≥3 (80 mg QD n = 9): 0 n (%) | Neutrophil count decreased, All (80 mg QD n = 9): 4 (44.4) n (%) | Neutrophil count decreased, Gr≥3 (80 mg QD n = 9): 1 (11.1) n (%) | Pain in extremity, All (80 mg QD n = 9): 2 (22.2) n (%) | Pain in extremity, Gr≥3 (80 mg QD n = 9): 0 n (%) | Platelet count decreased, All (80 mg QD n = 9): 4 (44.4) n (%) | Platelet count decreased, Gr≥3 (80 mg QD n = 9): 2 (22.2) n (%) | Protein in urine, All (80 mg QD n = 9): 0 n (%) | Protein in urine, Gr≥3 (80 mg QD n = 9): 0 n (%) | Vomiting, All (80 mg QD n = 9): 3 (33.3) n (%) | Vomiting, Gr≥3 (80 mg QD n = 9): 1 (11.1) n (%) | WBC decreased, All (80 mg QD n = 9): 5 (55.6) n (%) | WBC decreased, Gr≥3 (80 mg QD n = 9): 1 (11.1) n (%) | ALT increased, All (100 mg QD n = 20): 5 (25.0) n (%) | ALT increased, Gr≥3 (100 mg QD n = 20): 0 n (%) | AST increased, All (100 mg QD n = 20): 4 (20.0) n (%) | AST increased, Gr≥3 (100 mg QD n = 20): 1 (5.0) n (%) | Abdominal distension, All (100 mg QD n = 20): 0 n (%) | Abdominal distension, Gr≥3 (100 mg QD n = 20): 0 n (%) | Anemia (incl. hemoglobin decreased), All (100 mg QD n = 20): 11 (55.0) n (%) | Anemia (incl. hemoglobin decreased), Gr≥3 (100 mg QD n = 20): 4 (20.0) n (%) | Appetite decreased, All (100 mg QD n = 20): 5 (25.0) n (%) | Appetite decreased, Gr≥3 (100 mg QD n = 20): 0 n (%) | Asthenia, All (100 mg QD n = 20): 5 (25.0) n (%) | Asthenia, Gr≥3 (100 mg QD n = 20): 0 n (%) | Blood bilirubin increased, All (100 mg QD n = 20): 3 (15.0) n (%) | Blood bilirubin increased, Gr≥3 (100 mg QD n = 20): 0 n (%) | Blood creatinine increased, All (100 mg QD n = 20): 2 (10.0) n (%) | Blood creatinine increased, Gr≥3 (100 mg QD n = 20): 0 n (%) | Hypokalemia, All (100 mg QD n = 20): 0 n (%) | Hypokalemia, Gr≥3 (100 mg QD n = 20): 0 n (%) | Hyponatremia, All (100 mg QD n = 20): 2 (10.0) n (%) | Hyponatremia, Gr≥3 (100 mg QD n = 20): 0 n (%) | Nausea, All (100 mg QD n = 20): 4 (20.0) n (%) | Nausea, Gr≥3 (100 mg QD n = 20): 0 n (%) | Neutrophil count decreased, All (100 mg QD n = 20): 5 (25.0) n (%) | Neutrophil count decreased, Gr≥3 (100 mg QD n = 20): 2 (10.0) n (%) | Pain in extremity, All (100 mg QD n = 20): 2 (10.0) n (%) | Pain in extremity, Gr≥3 (100 mg QD n = 20): 0 n (%) | Platelet count decreased, All (100 mg QD n = 20): 6 (30.0) n (%) | Platelet count decreased, Gr≥3 (100 mg QD n = 20): 1 (5.0) n (%) | Protein in urine, All (100 mg QD n = 20): 2 (10.0) n (%) | Protein in urine, Gr≥3 (100 mg QD n = 20): 0 n (%) | Vomiting, All (100 mg QD n = 20): 5 (25.0) n (%) | Vomiting, Gr≥3 (100 mg QD n = 20): 0 n (%) | WBC decreased, All (100 mg QD n = 20): 9 (45.0) n (%) | WBC decreased, Gr≥3 (100 mg QD n = 20): 1 (5.0) n (%) | ALT increased, All (120 mg QD n = 4): 2 (50.0) n (%) | ALT increased, Gr≥3 (120 mg QD n = 4): 1 (25.0) n (%) | AST increased, All (120 mg QD n = 4): 2 (50.0) n (%) | AST increased, Gr≥3 (120 mg QD n = 4): 0 n (%) | Abdominal distension, All (120 mg QD n = 4): 0 n (%) | Abdominal distension, Gr≥3 (120 mg QD n = 4): 0 n (%) | Anemia (incl. hemoglobin decreased), All (120 mg QD n = 4): 3 (75.0) n (%) | Anemia (incl. hemoglobin decreased), Gr≥3 (120 mg QD n = 4): 1 (25.0) n (%) | Appetite decreased, All (120 mg QD n = 4): 1 (25.0) n (%) | Appetite decreased, Gr≥3 (120 mg QD n = 4): 0 n (%) | Asthenia, All (120 mg QD n = 4): 2 (50.0) n (%) | Asthenia, Gr≥3 (120 mg QD n = 4): 0 n (%) | Blood bilirubin increased, All (120 mg QD n = 4): 2 (50.0) n (%) | Blood bilirubin increased, Gr≥3 (120 mg QD n = 4): 1 (25.0) n (%) | Blood creatinine increased, All (120 mg QD n = 4): 1 (25.0) n (%) | Blood creatinine increased, Gr≥3 (120 mg QD n = 4): 0 n (%) | Hypokalemia, All (120 mg QD n = 4): 0 n (%) | Hypokalemia, Gr≥3 (120 mg QD n = 4): 0 n (%) | Hyponatremia, All (120 mg QD n = 4): 0 n (%) | Hyponatremia, Gr≥3 (120 mg QD n = 4): 0 n (%) | Nausea, All (120 mg QD n = 4): 1 (25.0) n (%) | Nausea, Gr≥3 (120 mg QD n = 4): 0 n (%) | Neutrophil count decreased, All (120 mg QD n = 4): 1 (25.0) n (%) | Neutrophil count decreased, Gr≥3 (120 mg QD n = 4): 0 n (%) | Pain in extremity, All (120 mg QD n = 4): 1 (25.0) n (%)
